PubChem BioAssay AID248 (DTP/NCI, 2004)
Several values for one entry are separate records, joined by “and”; a condition that tells them apart may be missing. Identical values can stand only once. Inconclusive results and toxic doses are left out. No stated cut-off is given here; in the data, active means T/C of 150% or more; inactive means T/C below 125%.

Test system: L1210 leukemia ip in BDF1 mice, survival T/C
Test: NCI In Vivo Anticancer Drug Screen. Data for tumor model L1210 Leukemia (intraperitoneal) in B6D2F1 (BDF1) mice
Settings: endpoint: mean survival time, higher = longer survival
Method: The antitumor activity of compounds was measured in mice bearing transplantable tumors. Survival or tumor size were measured and the results are expressed as the measurement made in the treated group (T) divided by the measurement made in the vehicle treated control group (C). The tumor model used in this assay is L1210 Leukemia (intraperitoneal) in B6D2F1 (BDF1) mice

[1] = dose: 100.0 mg/kg/injection, schedule: Q01DX001 (ip), vehicle: saline with Tween-80
[2] = dose: 100.0 mg/kg/injection, schedule: Q04DX002 (ip), vehicle: saline with Tween-80
[3] = dose: 100.0 mg/kg/injection, schedule: Q04DX003 (ip), vehicle: saline with Tween-80
[4] = dose: 200.0 mg/kg/injection, schedule: Q01DX001 (ip), vehicle: saline with Tween-80
[5] = dose: 200.0 mg/kg/injection, schedule: Q01DX009 (ip), vehicle: saline with Tween-80
[6] = dose: 200.0 mg/kg/injection, schedule: Q04DX002 (ip), vehicle: saline with Tween-80
[7] = dose: 400.0 mg/kg/injection, schedule: Q01DX001 (ip), vehicle: saline with Tween-80
[8] = dose: 400.0 mg/kg/injection, schedule: Q04DX002 (ip), vehicle: saline with Tween-80
[9] = dose: 100.0 mg/kg/injection, schedule: Q01DX009 (ip), vehicle: Klucel (hydroxypropylcellulose) (HPC)
[10] = dose: 200.0 mg/kg/injection, schedule: Q01DX009 (ip), vehicle: Klucel (hydroxypropylcellulose) (HPC)
[11] = dose: 100.0 mg/kg/injection, schedule: Q01DX001 (ip), vehicle: saline
[12] = dose: 200.0 mg/kg/injection, schedule: Q01DX001 (ip), vehicle: saline
[13] = dose: 200.0 mg/kg/injection, schedule: Q04DX003 (ip), vehicle: saline with Tween-80
[14] = dose: 400.0 mg/kg/injection, schedule: Q04DX003 (ip), vehicle: saline with Tween-80
[15] = dose: 100.0 mg/kg/injection, schedule: Q01DX001 (ip), vehicle: Klucel (hydroxypropylcellulose) (HPC)
[16] = dose: 200.0 mg/kg/injection, schedule: Q01DX001 (ip), vehicle: Klucel (hydroxypropylcellulose) (HPC)
[17] = dose: 100.0 mg/kg/injection, schedule: Q04DX003 (ip), vehicle: Klucel (hydroxypropylcellulose) (HPC)
[18] = dose: 200.0 mg/kg/injection, schedule: Q04DX003 (ip), vehicle: Klucel (hydroxypropylcellulose) (HPC)
[19] = dose: 400.0 mg/kg/injection, schedule: Q04DX003 (ip), vehicle: Klucel (hydroxypropylcellulose) (HPC)
[20] = dose: 400.0 mg/kg/injection, schedule: Q01DX001 (ip), vehicle: Klucel (hydroxypropylcellulose) (HPC)
[21] = dose: 400.0 mg/kg/injection, schedule: Q01DX001 (ip), vehicle: saline

Measured: T/C

CCOC(=O)c1ccc(NC(=O)Nc2cc(OC)ccc2OC)cc1
inactive: dose: 25.0 mg/kg/injection, schedule: Q01DX009 (ip), vehicle: saline with Tween-80 100 % of control and 91 % of control | dose: 50.0 mg/kg/injection, schedule: Q01DX009 (ip), vehicle: saline with Tween-80 95 % of control | [1] 98 % of control | [2] 96 % of control | [3] 96 % of control | [4] 95 % of control | [5] 91 % of control | [6] 100 % of control | [7] 91 % of control | [8] 94 % of control

SCCCCN1CCCCC1
inactive: dose: 3.0 mg/kg/injection, schedule: Q01DX001 (ip), vehicle: carboxymethylcellulose (CMC) 102 % of control | dose: 6.0 mg/kg/injection, schedule: Q01DX001 (ip), vehicle: carboxymethylcellulose (CMC) 100 % of control | dose: 12.0 mg/kg/injection, schedule: Q01DX001 (ip), vehicle: carboxymethylcellulose (CMC) 107 % of control | dose: 25.0 mg/kg/injection, schedule: Q01DX001 (ip), vehicle: carboxymethylcellulose (CMC) 95 % of control

Cc1ccc(OCC(=O)O)c(Cl)c1
inactive: [9] 104 % of control | [10] 94 % of control

CC(=O)c1scc2c1CCCC2
inactive: dose: 25.0 mg/kg/injection, schedule: Q01DX001 (ip), vehicle: saline with Tween-80 94 % of control | dose: 50.0 mg/kg/injection, schedule: Q01DX001 (ip), vehicle: saline with Tween-80 96 % of control | [1] 96 % of control

NC(N)=N/N=C/c1ccc(Cl)cc1Cl
inactive: dose: 30.0 mg/kg/injection, schedule: Q01DX010 (oral), vehicle: saline 102 % of control | dose: 44.0 mg/kg/injection, schedule: Q01DX010 (oral), vehicle: saline 100 % of control | dose: 50.0 mg/kg/injection, schedule: Q01DX001 (ip), vehicle: saline 100 % of control | dose: 63.0 mg/kg/injection, schedule: Q01DX Z (ip), vehicle: saline 101 % of control | dose: 66.0 mg/kg/injection, schedule: Q01DX010 (oral), vehicle: saline 104 % of control | dose: 99.0 mg/kg/injection, schedule: Q01DX010 (oral), vehicle: saline 98 % of control | [11] 106 % of control | [12] 108 % of control

O=C(Nc1ccccc1[N+](=O)[O-])OCCOc1ccccc1
inactive: [1] 98 % of control | dose: 100.0 mg/kg/injection, schedule: Q01DX009 (ip), vehicle: saline with Tween-80 103 % of control and 90 % of control | [2] 93 % of control and 95 % of control | [3] 97 % of control | [4] 91 % of control | [5] 100 % of control and 92 % of control | [6] 98 % of control and 100 % of control | [13] 103 % of control | [7] 93 % of control | dose: 400.0 mg/kg/injection, schedule: Q01DX009 (ip), vehicle: saline with Tween-80 93 % of control and 90 % of control | [8] 104 % of control and 92 % of control | [14] 105 % of control

Cc1ccc(-c2cn(CCCOc3ccccc3)c(=O)nc2N)cc1
inactive: dose: 50.0 mg/kg/injection, schedule: Q01DX001 (ip), vehicle: Klucel (hydroxypropylcellulose) (HPC) 89 % of control | [15] 99 % of control | [16] 87 % of control

Cc1n[nH]c(=S)n1N
inactive: [3] 115 % of control | [13] 102 % of control | [14] 96 % of control

CCOC(=O)c1oc2ccc(OC)c(C(C)=O)c2c1C
inactive: [2] 103 % of control | [6] 107 % of control | [8] 94 % of control

CC(=O)OC1=CC(=O)c2ccccc2C1=O
inactive: dose: 5.0 mg/kg/injection, schedule: Q01DX001 (ip), vehicle: carboxymethylcellulose (CMC) 101 % of control | dose: 10.0 mg/kg/injection, schedule: Q01DX001 (ip), vehicle: carboxymethylcellulose (CMC) 101 % of control | dose: 20.0 mg/kg/injection, schedule: Q01DX001 (ip), vehicle: carboxymethylcellulose (CMC) 101 % of control | dose: 40.0 mg/kg/injection, schedule: Q01DX001 (ip), vehicle: carboxymethylcellulose (CMC) 107 % of control | dose: 80.0 mg/kg/injection, schedule: Q01DX001 (ip), vehicle: carboxymethylcellulose (CMC) 107 % of control | dose: 100.0 mg/kg/injection, schedule: Q01DX001 (ip), vehicle: carboxymethylcellulose (CMC) 104 % of control

C[N+]1(C)CCCC1
inactive: dose: 6.25 mg/kg/injection, schedule: Q01DX009 (ip), vehicle: saline 103 % of control | dose: 12.5 mg/kg/injection, schedule: Q01DX009 (ip), vehicle: saline 102 % of control | dose: 12.5 mg/kg/injection, schedule: Q04DX003 (ip), vehicle: saline 86 % of control | dose: 25.0 mg/kg/injection, schedule: Q01DX009 (ip), vehicle: saline 109 % of control | dose: 25.0 mg/kg/injection, schedule: Q04DX003 (ip), vehicle: saline 91 % of control | dose: 50.0 mg/kg/injection, schedule: Q04DX003 (ip), vehicle: saline 95 % of control

COc1ccc(NC(=O)Oc2ccc(OC)cc2)cc1
inactive: [9] 103 % of control | [17] 97 % of control | [10] 95 % of control | [18] 89 % of control | dose: 400.0 mg/kg/injection, schedule: Q01DX009 (ip), vehicle: Klucel (hydroxypropylcellulose) (HPC) 89 % of control | [19] 91 % of control

Cc1ccc(CCCC#N)[nH]1
inactive: dose: 100.0 mg/kg/injection, schedule: Q01DX001 (sc), vehicle: carboxymethylcellulose (CMC) 110 % of control | dose: 200.0 mg/kg/injection, schedule: Q01DX001 (sc), vehicle: carboxymethylcellulose (CMC) 113 % of control

CC(C)NC(=O)c1ccccc1
inactive: [15] 96 % of control | [17] 96 % of control | [16] 98 % of control | [18] 103 % of control | [20] 101 % of control | [19] 101 % of control

CCOC(=O)c1[nH]c(COC(C)=O)c(CCC(=O)O)c1C
inactive: dose: 25.0 mg/kg/injection, schedule: Q04DX003 (ip), vehicle: Klucel (hydroxypropylcellulose) (HPC) 101 % of control | dose: 50.0 mg/kg/injection, schedule: Q04DX003 (ip), vehicle: Klucel (hydroxypropylcellulose) (HPC) 95 % of control | [15] 101 % of control | [17] 98 % of control | [16] 93 % of control | [20] 88 % of control

Cc1cc(C)nc(CCSS(=O)(=O)O)c1
inactive: [11] 104 % of control | [12] 102 % of control | [21] 98 % of control

CCCCSCC(N)C(=O)OC (configuration not stated)
inactive: dose: 100.0 mg/kg/injection, schedule: Q01DX009 (ip), vehicle: saline 96 % of control | dose: 100.0 mg/kg/injection, schedule: Q04DX003 (ip), vehicle: saline 106 % of control | dose: 200.0 mg/kg/injection, schedule: Q01DX009 (ip), vehicle: saline 101 % of control | dose: 200.0 mg/kg/injection, schedule: Q04DX003 (ip), vehicle: saline 100 % of control | dose: 400.0 mg/kg/injection, schedule: Q01DX009 (ip), vehicle: saline 112 % of control | dose: 400.0 mg/kg/injection, schedule: Q04DX003 (ip), vehicle: saline 97 % of control

CC(=O)ONC(NOC(C)=O)N[N+](=O)[O-]
inactive: [11] 103 % of control | [12] 98 % of control | [21] 102 % of control
